Assay results from publication PMC8761912, “Cryptosporidium parvum Pyruvate Kinase Inhibitors With in vivo Anti-cryptosporidial Efficacy” (Frontiers in Microbiology, 2022).
“Also recorded” adds a separate entry of the source. Read-outs that look alike come from different tables or passages of the source.

Assays:
[1] = molecular target: recombinant CpPyK (rCpPyK) protein (Cryptosporidium parvum, UniProt Q5CSM7); experiment: rCpPyK enzymatic activity inhibition assay (ATP detection, Cell Titer-Glo luminescence); assay type: biochemical
Chain of recombinant CpPyK (rCpPyK) protein (Q5CSM7 entry or part of it): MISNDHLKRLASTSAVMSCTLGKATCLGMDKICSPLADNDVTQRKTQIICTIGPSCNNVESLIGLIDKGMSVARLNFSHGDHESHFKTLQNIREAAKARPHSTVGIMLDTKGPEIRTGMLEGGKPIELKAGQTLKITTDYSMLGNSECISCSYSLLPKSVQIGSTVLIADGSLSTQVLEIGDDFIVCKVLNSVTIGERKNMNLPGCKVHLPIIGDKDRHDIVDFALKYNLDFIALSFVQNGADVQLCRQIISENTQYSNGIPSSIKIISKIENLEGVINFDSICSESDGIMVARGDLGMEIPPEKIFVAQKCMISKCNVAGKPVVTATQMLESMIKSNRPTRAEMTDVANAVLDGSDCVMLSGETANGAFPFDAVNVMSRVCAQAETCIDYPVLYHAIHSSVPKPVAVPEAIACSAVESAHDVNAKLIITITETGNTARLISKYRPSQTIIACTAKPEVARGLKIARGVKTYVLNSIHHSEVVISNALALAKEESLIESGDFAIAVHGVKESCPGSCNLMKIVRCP
Method: The in vitro enzymatic activity of the rCpPyK protein was determined by quantitating the amount of ATP produced by the transfer of a phosphate group from phosphoenolpyruvate to adenosine diphosphate (ADP) in the presence of varying concentrations of the recombinant protein (Figure 1A). A typical assay contained 0.5 mM phosphoenolpyruvate, 0.6 mM ADP, 50 mM Tris buffer pH 7.5, 60 mM MgSO4, 100 mM KCl, and varying concentrations of rCpPyK incubated for 3 h at room temperature. The ATP generated was detected in a reaction volume of 50 μl in white opaque-walled 96 well plates by the luciferase-based Cell Titer-Glo 2.0 reagent (Promega) following the manufacturer’s instructions. The enzyme kinetics of rCpPyK were determined by using varying phosphoenolpyruvate (0–8 mM) and ADP (0–2 mM) concentrations in an enzymatic reaction catalyzed by a fixed concentration of the recombinant protein (6 ng/μl). In all assays, reaction mixtures without rCpPyK were included as negative controls. Three independent assays were performed for each experiment, and samples were run in triplicate. The luminescence generated was recorded using a multi-mode microplate reader (Spectra Max iD3; Molecular Devices, United States). GraphPad PRISM® v8 software was used to fit the Michaelis–Menten model directly to the substrate-velocity data to determine the enzymatic kinetic parameters for rCpPyK.
The Diversity Set VI chemical library (Supplementary Table 1) was obtained from the National Cancer Institute (NCI)/Developmental Therapeutics Program (DTP) Open Repository collection of chemical compounds.^1 Compounds were individually reconstituted in molecular biology grade dimethyl sulfoxide (DMSO) from Sigma-Aldrich and stored at −20°C. From the library, 1,424 compounds were screened in 96-well plates using the rCpPyK catalyzed enzyme assay to identify potential CpPyK inhibitors. The reactions were performed in 50 μl reaction volume containing 0.5 mM phosphoenolpyruvate, 0.6 mM ADP, 50 mM Tris buffer pH 7.5, 60 mM MgSO4, 100 mM KCl, and 6 ng/μl of rCpPyK protein with or without compound. The concentration of DMSO in all reaction mixtures was 1% (v/v). Control reactions without rCpPyK protein were included for background subtraction. Following 3 h of incubation at room temperature, an equal volume of the Cell Titer-Glo 2.0 reagent was added to each well, and the luminescence produced was recorded as relative luminescence units (RLU) after 10 min of incubation using a multi-mode microplate reader (Spectra Max iD3; Molecular Devices, United States). The mean percent inhibition (MPI) of rCpPyK activity by each compound was derived by dividing the difference in luminescence (RLU) between the compound-treated wells and the DMSO-treated wells by the luminescence of the DMSO-treated wells and multiplying the product by 100:
(1) MPI=[(MeanRLUDMSO-treated-MeanRLUCompound-treated)÷MeanRLUDMSO-treated]×100.
Half maximal inhibitory concentration (IC50) values were determined by applying a non-linear regression analysis curve fit to the mean dose-response data for varying concentrations of each compound using GraphPad PRISM® v8. Reactions were performed in triplicate and repeated at least thrice.

C. parvum = experiment: Histopathology of distal small intestine of C. parvum-infected IFN-γ KO mice; assay type: in vivo, Cryptosporidium parvum; conditions: sacrificed day 11 PI
Method: Eight weeks old male interferon-gamma knockout (IFN-γ KO) mice (B6.129S7-Ifng^TM1Ts/J) were purchased from The Jackson Laboratory, United States, and allowed to quarantine and acclimatize for 1 week before the commencement of experiments. Before the start of the infection assays in mice, the tolerability of each inhibitor was determined by daily oral gavage with varying dosages (0–10 mg/kg mouse bodyweight) in groups of mice (n = 3 mice per group) for 8 days. During this period, mice were monitored daily for any changes in physical and mental activity, feeding, body weight, body temperature, fur condition, and body posture. […] Mice were divided into infected and uninfected groups (n = 3 mice per group) and each individual mouse was housed in a separate cage lined with sterile gauze bedding. Each mouse from the infected group was infected by oral gavage administration of 10^4 C. parvum AUCP-1 isolate oocysts suspended in 50 μl of PBS. Beginning day 3 PI, groups of mice were orally treated with CpPyK inhibitors (at the specified doses), sham (100 μl of 5% DMSO in PBS), or 1,000 mg/kg paromomycin (in sterile water) once daily for a total of 8 days. Fecal pellets were collected daily in individual sterile 15 ml tubes, and submerged in an equivalent volume of PBS containing a cocktail of penicillin (100 units/ml), streptomycin (100 μg/ml), chloramphenicol (34 μg/ml), and amphotericin (0.25 μg/ml), and stored at 4°C until use. Three independent replicate infection assays were performed. Mice were sacrificed at day 11 PI, and 5 cm of the distal small intestine just anterior to the cecum was resected and submerged in 10% neutral buffered formalin and submitted for histopathological processing in the Comparative Biosciences Histology Laboratory at the University of Illinois at Urbana-Champaign. Briefly, intestinal tissues preserved in 10% neutral buffered formalin were washed in 70% ethanol, embedded in paraffin, and sectioned transversely at a thickness of 5 μm. Sections were stained with hematoxylin and eosin. The slides were imaged using a Zeiss microscope fitted with a color camera.

[2] = ref https://pubchem.ncbi.nlm.nih.gov, cited from earlier work; for Polar surface area: topological
[3] = 10 mg/kg daily oral from day 3 PI
[4] = 6 ng/μl rCpPyK, 3 h at room temperature, read-out: Enzyme inhibition IC50
[5] = 2.5 mg/kg daily oral from day 3 PI

| SMILES | IC50 [1] | intestinal pathology (histology, distal small intestine) (C. parvum; [3]) | Number of Hydrogen bond acceptors [2] | Number of Hydrogen bond donors [2] | Polar surface area [2] | IC50 [1, 4] | intestinal pathology (histology, distal small intestine) (C. parvum; [5]) |
| --- | --- | --- | --- | --- | --- | --- | --- |
| c1ccc(-c2nnc(-c3ccccn3)[nH]2)nc1 [NSC234945, 2-(3-pyridin-2-yl-1H-1,2,4-triazol-5-yl)pyridine] | 235 µM | best efficacy; also recorded: notably reduced pathological changes | 4 | 1 | 67.4 Å² | – | – |
| CCOc1ccc(/C=C2\CCc3ccccc3C2=O)cc1 [NSC252172, (2E)-2-[(4-ethoxyphenyl)methylidene]-3,4-dihydronaphthalen-1-one] | – | notably reduced pathological changes | 2 | 0 | 26.3 Å² | 123 µM | – |
| Cc1cc2c(c(C#N)c1C)NC=NC2C (centres unmarked) [NSC303244, 4,6,7-trimethyl-1,4-dihydroquinazoline-8-carbonitrile] | – | – | 2 | 1 | 48.2 Å² | 243 µM | reduced intestinal pathology |
| N#C/C(=C\c1cc(O)c(O)c(O)c1)C(N)=O [NSC638080, (E)-2-cyano-3-(3,4,5-trihydroxyphenyl)prop-2-enamide] | – | – | 5 | 4 | 128 Å² | 97.1 µM | reduced intestinal pathology |
